Experimental data taken from PubChem BioAssay (NCI).
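1) Cells in 96-well plates. 2) Compound, 48 h, 5 concentrations. 3) Linear interpolation between surrounding doses. 4) Unreached endpoint = highest concentration. GI50 marks 50% less growth. TGI denotes the concentration required for complete inhibition of growth.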

Assays:
Experiment in all cases: inhibition of tumour cell growth, NCI panel, 48 h
[1] = system: SK-MEL-28 melanoma
[2] = system: CAKI-1 renal
[3] = system: HOP-62 NSCLC
[4] = system: RXF 393 renal
[5] = system: OVCAR-4 ovarian
[6] = system: SK-MEL-5 melanoma
[7] = system: OVCAR-5 ovarian
[8] = system: MOLT-4 leukemia
[9] = system: HS 578T breast
[10] = system: U251 CNS
[11] = system: NCI/ADR-RES ovarian
[12] = system: TK-10 renal
[13] = system: NCI-H226 lung
[14] = system: ACHN renal
[15] = system: HCT-15 colon
[16] = system: DU-145 prostate
[17] = system: SW-620 colon
[18] = system: KM12 colon
[19] = system: OVCAR-8 ovarian
[20] = system: CCRF-CEM leukemia
[21] = system: RPMI-8226 leukemia
[22] = system: MDA-MB-435
[23] = system: LOX IMVI melanoma
[24] = system: K-562 leukemia
[25] = system: UACC-62 melanoma
[26] = system: 786-0 renal
[27] = system: SF-539 CNS
[28] = system: NCI-H460 lung
[29] = system: HT29 colon
[30] = system: SF-295 CNS
[31] = system: SN12C renal
[32] = system: MCF7 breast
[33] = system: SK-OV-3 ovarian
[34] = system: SNB-19 CNS
[35] = system: COLO 205 colon
[36] = system: HCT-116 colon
[37] = system: MALME-3M melanoma
[38] = system: EKVX NSCLC
[39] = system: MDA-MB-231 breast
[40] = system: A498 renal
[41] = system: HOP-92 NSCLC
[42] = system: HCC-2998 colon
[43] = system: UACC-257 melanoma
[44] = system: T-47D breast
[45] = system: SF-268 CNS
[46] = system: HL-60(TB) leukemia
[47] = system: M14 melanoma
[48] = system: SK-MEL-2 melanoma
[49] = system: UO-31 renal
[50] = system: SNB-75 CNS
[51] = system: BT-549 breast
[52] = system: OVCAR-3 ovarian
[53] = system: NCI-H522 lung
[54] = system: A549 NSCLC
[55] = system: PC-3 prostate
[56] = system: IGROV1 ovarian

Work on `N#Cc1c(N)nc(N2CCOCC2)c(C#N)c1-c1cccnc1` yielded a GI50 [1] greater than 100 µM, a TGI [1] greater than 100 µM and a GI50 [2] of 32.6 µM. It also gave a TGI [2] of 95 µM, a GI50 [3] of 24.9 µM and a TGI [3] greater than 100 µM. The GI50 [4] was greater than 100 µM, the TGI [4] was greater than 100 µM and the GI50 [5] was 44.4 µM. It also gave a TGI [5] greater than 100 µM, a GI50 [6] greater than 100 µM and a TGI [6] greater than 100 µM. The GI50 [7] was 25.7 µM, the TGI [7] was 73.5 µM and the GI50 [8] was greater than 100 µM. It also gave a TGI [8] greater than 100 µM, a GI50 [9] of 66.1 µM and a TGI [9] greater than 100 µM. It also gave a GI50 [10] greater than 100 µM, a TGI [10] greater than 100 µM and a GI50 [11] of 81.7 µM. For the same molecule, the TGI [11] was greater than 100 µM, the GI50 [12] was greater than 100 µM and the TGI [12] was greater than 100 µM. It also gave a GI50 [13] of 81.8 µM, a TGI [13] greater than 100 µM and a GI50 [14] of 48.7 µM. It also gave a TGI [14] greater than 100 µM, a GI50 [15] greater than 100 µM and a TGI [15] greater than 100 µM. For the same molecule, the GI50 [16] was greater than 100 µM, the TGI [16] was greater than 100 µM and the GI50 [17] was greater than 100 µM. The TGI [17] was greater than 100 µM, the GI50 [18] was greater than 100 µM and the TGI [18] was greater than 100 µM. It also gave a GI50 [19] greater than 100 µM, a TGI [19] greater than 100 µM and a GI50 [20] of 39.3 µM. It also gave a TGI [20] greater than 100 µM, a GI50 [21] of 45.5 µM and a TGI [21] greater than 100 µM. The GI50 [22] was greater than 100 µM, the TGI [22] was greater than 100 µM and the GI50 [23] was 63.1 µM. It also gave a TGI [23] greater than 100 µM, a GI50 [24] of 71.7 µM and a TGI [24] greater than 100 µM. It also gave a GI50 [25] of 43.4 µM, a TGI [25] greater than 100 µM and a GI50 [26] greater than 100 µM. The TGI [26] was greater than 100 µM, the GI50 [27] was greater than 100 µM and the TGI [27] was greater than 100 µM. For the same molecule, the GI50 [28] was greater than 100 µM, the TGI [28] was greater than 100 µM and the GI50 [29] was greater than 100 µM. For the same molecule, the TGI [29] was greater than 100 µM, the GI50 [30] was 44.4 µM and the TGI [30] was greater than 100 µM. For the same molecule, the GI50 [31] was 97.2 µM, the TGI [31] was greater than 100 µM and the GI50 [32] was 55.8 µM. For the same molecule, the TGI [32] was greater than 100 µM, the GI50 [33] was 47.8 µM and the TGI [33] was 99.6 µM. The GI50 [34] was 77.2 µM, the TGI [34] was greater than 100 µM and the GI50 [35] was 36 µM. It also gave a TGI [35] of 96.2 µM, a GI50 [36] of 86.6 µM and a TGI [36] greater than 100 µM. For the same molecule, the GI50 [37] was 37.2 µM, the TGI [37] was 91.4 µM and the GI50 [38] was 83.8 µM. It also gave a TGI [38] greater than 100 µM, a GI50 [39] of 27.6 µM and a TGI [39] greater than 100 µM. The GI50 [40] was 27.5 µM, the TGI [40] was 80.8 µM and the GI50 [41] was 24.8 µM. For the same molecule, the TGI [41] was greater than 100 µM, the GI50 [42] was 8.8 µM and the TGI [42] was 49.4 µM. It also gave a GI50 [43] of 93.1 µM, a TGI [43] greater than 100 µM and a GI50 [44] of 34 µM. For the same molecule, the TGI [44] was 66.7 µM, the GI50 [45] was greater than 100 µM and the TGI [45] was greater than 100 µM. The GI50 [46] was 95.6 µM, the TGI [46] was greater than 100 µM and the GI50 [47] was 71.2 µM. The TGI [47] was greater than 100 µM, the GI50 [48] was greater than 100 µM and the TGI [48] was greater than 100 µM. The GI50 [49] was 24.1 µM, the TGI [49] was greater than 100 µM and the GI50 [50] was 11.1 µM. For the same molecule, the TGI [50] was 43.6 µM, the GI50 [51] was greater than 100 µM and the TGI [51] was greater than 100 µM. The GI50 [52] was 26.6 µM, the TGI [52] was 89.7 µM and the GI50 [53] was 22.3 µM. The TGI [53] was 81.7 µM, the GI50 [54] was greater than 100 µM and the TGI [54] was greater than 100 µM. It also gave a GI50 [55] of 33.5 µM, a TGI [55] greater than 100 µM and a GI50 [56] of 17.2 µM. The TGI [56] was 44.8 µM.
